Assay [1] deals with T1, chimeric receptor hRGR (human retinoic acid receptor with hGR DNA-binding domain) (Homo sapiens, UniProt P10276, INS60IETQSSSSEEIVPSPPSPPPLPRPPKLCLVCSDEASGCHYGVLTCGSCKVFFKRAVEGQHNYLCAGRNDCIIDKIRRKNCPACRYRKCLQAGMNLES).
T1 construct: expressed in transfected cells; host or cells: CV-1 (African Green monkey kidney) cells, cotransfected with pRShRGR and pMTVCAT
T1 sequence (P10276 with tags, fused parts or gaps isoform P10276-3 INS60IETQSSSSEEIVPSPPSPPPLPRPPKLCLVCSDEASGCHYGVLTCGSCKVFFKRAVEGQHNYLCAGRNDCIIDKIRRKNCPACRYRKCLQAGMNLES): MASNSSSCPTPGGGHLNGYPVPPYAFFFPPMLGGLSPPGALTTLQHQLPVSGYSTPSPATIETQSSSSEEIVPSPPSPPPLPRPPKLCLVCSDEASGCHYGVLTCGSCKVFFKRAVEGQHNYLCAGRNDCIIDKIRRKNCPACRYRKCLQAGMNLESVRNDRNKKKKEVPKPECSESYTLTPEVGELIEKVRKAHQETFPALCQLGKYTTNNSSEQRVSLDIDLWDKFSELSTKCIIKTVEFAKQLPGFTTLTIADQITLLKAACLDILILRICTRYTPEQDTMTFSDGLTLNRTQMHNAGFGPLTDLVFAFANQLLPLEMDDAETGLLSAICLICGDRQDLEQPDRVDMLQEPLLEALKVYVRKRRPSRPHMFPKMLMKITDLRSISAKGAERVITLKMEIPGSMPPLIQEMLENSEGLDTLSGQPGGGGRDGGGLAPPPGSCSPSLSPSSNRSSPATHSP
Nature of the assay: Functional ligand identification assay: CAT induction in CV-1 cells cotransfected with pRShRGR and MTV-CAT. In kind it is cell-based. The following applies: for Induction of CAT activity of the hybrid receptor by natural and synthetic non-retinoid ligands: pRShRGR + pMTVCAT, single 1 μM dose (FIG. 3A legend); for Induction of CAT activity of the hybrid receptor (in words): pRShRGR + MTV-CAT, FIG. 2B at 100 nM, FIG. 3A increasing concentrations. An excerpt:
Since the ligand for the gene product of phRAR1 was unknown, it was desirable to develop a quick and sensitive assay to reveal its identity. […] This chimera recognizes the glucocorticoid responsive element of the MMTV-LTR but stimulates transcription in an estrogen-dependent fashion (see Green, et al., (1987)). This led us to wonder if a general domain-swapping strategy could be exploited to identify the ligand-binding properties of a novel hormone receptor. To test this approach we first substituted the DNA-binding domain of the phRAR1 gene product with the well described DNA-binding domain from the hGR (FIG. 2A). (This chimeric construction, when expressed in suitable host cells, produces a hybrid receptor protein whose ligand-binding domain region must bind with a functional exogenous ligand before the ligand/receptor complex can bind to a GRE, thereby activating a glucocorticoid inducible promoter.)
To assay for the presence of a functional ligand the chimeric receptor gene was transfected into suitable host cells along with a suitable GRE linked reporter gene. CV-1 cells were used for the assay along with a MMTV-CAT reporter gene. (MMTV-CAT is carried on reporter plasmid, GM-CAT, which has been deposited with the American Type Culture Collection for patent purposes; see the section of this specification labeled, "Deposits"). […] For example, the growth hormone promoter can be functionally linked to the bacterial CAT gene. Since the growth hormone promoter contains a thyroid responsive transcription element, such a reporter plasmid can be used to assay hybrid thyroid receptor proteins. See the subheading: "Construction of Reporter and Expression Plasmids" in this specification. (Since mineralocorticoid receptors can activate GRE's, a reporter plasmid such as GM-CAT can be used to assay hybrid mineralocorticoid receptor proteins.)
Returning to the functional ligand identification assay, the transfected cells were then systematically challenged with a battery of candidate ligands and induction monitored by changes in CAT activity.
(§1) FIGS. 2A and 2B. 2A, Construction of the chimeric receptor hRGR. The domain-structure of the various constructions are shown schematically, the numbers correspond to the amino acid positions of each domain. The DNA-binding domains are represented by "DNA" and the ligand-binding domains by their respective inducers. The Nor1 and Xho1 sites created by site-directed mutagenesis to permit the exchange of the DNA-binding domains between receptors are indicated.
(§2) Methods. […] The mutant receptors were then transferred to the expression vector pRS (see Giguere, et al., (1986), and the Not1/Xho1 restriction fragment of pRShGRNX containing the hGR DNA-binding domain was introduced into pRShRnx between the Not1 and Xho1 sites to create pRShRGR. B, Cell transfection and CAT assay. The recombinant DNA constructs (5 μg each) were introduced into CV-1 cells by calcium phosphate coprecipitation (see Wigler, et al., (1979)). The cells were then cultured for two days in serum free media supplemented with Nutridoma (Boehringer Mannheim) in presence or absence of inducers. CV-1 cells were then prepared for CAT assays as described by Gorman, et al. (1982) and the assays performed for 3 h using 25 μg of protein extract. All experiments with retinol were conducted in subdued light.
(§3) FIGS. 3A and 3B. 3A, Dose-response to retinoids. […] The levels of CAT activity were plotted as percentages of the maximal response observed in this experiment. […] The values represent the mean of quadruplicate determinations.
Methods. 3A, CV-1 cell cotransfections and CAT assays were performed as described in FIG. 2.

Assay [2] has as its target T2, phRAR1 gene product (human retinoic acid receptor) (Homo sapiens, UniProt P10276).
T2 sequence (P10276 1-462): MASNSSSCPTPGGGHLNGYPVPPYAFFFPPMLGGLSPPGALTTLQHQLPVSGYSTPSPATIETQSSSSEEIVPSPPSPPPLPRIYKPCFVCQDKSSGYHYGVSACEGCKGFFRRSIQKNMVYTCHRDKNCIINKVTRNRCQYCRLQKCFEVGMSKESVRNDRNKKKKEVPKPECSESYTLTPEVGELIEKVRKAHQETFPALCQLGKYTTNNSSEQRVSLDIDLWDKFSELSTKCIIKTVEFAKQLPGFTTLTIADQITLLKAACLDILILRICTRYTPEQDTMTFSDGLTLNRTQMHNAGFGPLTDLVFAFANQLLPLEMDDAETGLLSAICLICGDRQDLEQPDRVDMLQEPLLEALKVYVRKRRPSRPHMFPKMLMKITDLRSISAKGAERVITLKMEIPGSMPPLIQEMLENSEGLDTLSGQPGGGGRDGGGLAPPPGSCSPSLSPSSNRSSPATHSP
Nature of the assay: 3H-retinoic acid binding to cytosol extracts of COS-1 cells transfected with pRShRR. The following applies: for Competition of 3H-retinoic acid binding: cytosol of transfected COS-1 cells, 2×10^-8 M 3H-retinoic acid, 1000-fold excess (2×10^-5 M) competitor, 4° C., 16 h. Here is the method:
as §3
Methods. 3A, CV-1 cell cotransfections and CAT assays were performed as described in FIG. 2. […] All other products were diluted in ethanol and control cultures received 0.1% solvent (v/v) in media. Dose-response curves of retinoid treatment were performed in triplicate. 3B, Subconfluent COS-1 cells were transfected with 10 μg/dish of a control plasmid (pRS) or pRShRR by the DEAE-Dextran method (see Deans, et al., (1984)). Cells were maintained for 2 days in DMEM with 5% charcoal-treated fetal calf serum, then harvested in TNE (40 mM tris-HCl pH 7.5, 150 mM NaCl, 1 mM EDTA) and lysed by Dounce homogenization in hypotonic buffer (50 mM tris-HCl pH 7.4, 0.1 mM EDTA, 5 mM dithiothreitol,10 mM NaMoO4, 10% glycerol, 0.5 mM phenylmethylsulfonyl fluoride) and centrifuged at 100,000×g for 30 min to yield the cytosol fraction. […] Specific binding was measured by the addition of 2×10^-5 M of competitors. Reactions were carried out at 4° C. for 16 h. […] Reactions were placed on filters for 1 min and then rinsed with 5 ml of washing buffer (50 mM tris-HCl pH 7.4, 0.1 mM EDTA, 0.1% Triton X-100). Filters were dried and counted by liquid scintillation spectrophotometry.

Assay [3] concerns hybrid receptors with an hTRβ carboxyl terminus. Nature of the assay: Hybrid thyroid/glucocorticoid receptor CAT assay, hybrids with hTRβ carboxyl terminus. In kind it is cell-based, human. The following applies: CV-1 cells, FIG. 9.
Description: CV-1 cells were used as the receptor-deficient host cells that were transfected with expression plasmids that carry the chimeric RR/TR receptors, and reporter plasmids carrying the CAT reporter gene. […] Acetylated and non-acetylated forms of [^14 C]chloramphenicol were separated by thin layer chromatography, excised, and quantitated by liquid scintillation counting in Econofluor (DuPont) with 5% DMSO. β-galactosidase assays were performed as described by Herbomel et al. (1984). CAT activity is expressed as percent conversion divided by β-galactosidase activity.
For assay [4], the system named is alpha thyroid hormone receptor (rTRα). Particulars: CV-1 cells, absence or presence of T3 (data not shown).
Assay [5] relates to beta thyroid hormone receptor (hTRβ). Particulars: CV-1 cells, absence or presence of T3 (data not shown).
Assay [6] deals with human glucocorticoid receptor (hGR). Kind of assay: CAT induction in CV-1 cells cotransfected with pRShGR and MTV-CAT. In kind it is cell-based. Particulars: pRShGR + MTVCAT, 100 nM, 2 days.
Description: as §1, §2

In assay [7] the test system is human retinoic acid receptor (hRARα). Kind of assay: CAT induction in CV-1 cells cotransfected with pRShRR and MTV-CAT. Particulars: pRShRR + MTVCAT, 100 nM, 2 days. In kind it is cell-based.
Description: as §1, §2

Assay [8] deals with mutated human retinoic acid receptor with Not1 and Xho1 sites (pRShRRNX). Kind of assay: CAT induction in CV-1 cells cotransfected with parent vector pRShRRNX and MTV-CAT. In kind it is cell-based. Particulars: pRShRRNX + MTVCAT, 100 nM, 2 days.
Description: as §1, §2

The text below walks through data of patent publication US5599904A, “Chimeric steroid hormone superfamily receptor proteins” (priority 1992, dated 1997).

Consider estrogen, for which the “Induction of CAT activity of the hybrid receptor by natural and synthetic non-retinoid ligands” value in assay [1] is recorded as “failed to induce CAT activity”. For `C=C1CC[C@H](O)C/C1=C/C=C1\CCC[C@]2(C)[C@@H]([C@H](C)CCCC(C)C)CC[C@@H]12` [Vitamin D3], the “Induction of CAT activity of the hybrid receptor by natural and synthetic non-retinoid ligands” value in assay [1] is recorded as “failed to induce CAT activity”. Further, the “Competition of 3H-retinoic acid binding” value in assay [2] is recorded as “did not compete”. Regarding ^3 H-retinoic acid, in assay [2] (COS-1 cells transfected with pRShRR versus control plasmid pRS), the “Specific binding of 3H-retinoic acid by transfected cells” value is “increased capacity to specifically bind”. For the compound `CC1=C(/C=C/C(C)=C/C=C/C(C)=C/CO)C(C)(C)CCC1` [retinol], the “Induction of CAT activity of the hybrid receptor (in words)” value (from here on “Induction of CAT activity … (in words)”) in assay [1] was “weak agonist”. In assay [2], the “Competition of 3H-retinoic acid binding” value is reported as “only partially”. For `C[C@H](CCCC(C)(C)O)[C@H]1CC[C@H]2[C@@H]3CC=C4C[C@@H](O)CC[C@]4(C)[C@H]3CC[C@]12C` [25-OH-cholesterol], in assay [1], the “Induction of CAT activity of the hybrid receptor by natural and synthetic non-retinoid ligands” value is given as “failed to induce CAT activity”. Take `N[C@@H](Cc1cc(I)c(Oc2cc(I)c(O)c(I)c2)c(I)c1)C(=O)O` [T4, thyroxine]: in assay [1], the “Induction of CAT activity of the hybrid receptor by natural and synthetic non-retinoid ligands” value is given as “failed to induce CAT activity”. For the compound `C[C@]12CCC(=O)C=C1CC[C@@H]1[C@@H]2[C@@H](O)C[C@]2(C=O)[C@@H](C(=O)CO)CC[C@@H]12` [aldosterone], in assay [1], the “Induction of CAT activity of the hybrid receptor by natural and synthetic non-retinoid ligands” value is given as “failed to induce CAT activity”. On to `CC(=O)[C@H]1CC[C@H]2[C@@H]3CCC4=CC(=O)CC[C@]4(C)[C@H]3CC[C@]12C` [progesterone], for which the “Induction of CAT activity of the hybrid receptor by natural and synthetic non-retinoid ligands” value in assay [1] is “failed to induce CAT activity”. On to `C[C@]12CC[C@H]3[C@@H](CCC4=CC(=O)CC[C@@]43C)[C@@H]1CC[C@@H]2O` [testosterone], for which the “Induction of CAT activity of the hybrid receptor by natural and synthetic non-retinoid ligands” value in assay [1] is recorded as “failed to induce CAT activity”. In the case of `N[C@@H](Cc1cc(I)c(Oc2ccc(O)c(I)c2)c(I)c1)C(=O)O` [T3, 3,5,3'-triiodo-L-thyronine], the “Activation of hybrid receptors by hormone” value in assay [3] is reported as “activated”. The “Activation of transcription from MTV-CAT (no TRE)” value in assay [4] and in assay [5] was “neither the alpha nor the beta thyroid hormone receptor activates transcription” throughout.

For `C[C@]12CCC(=O)C=C1CC[C@@H]1[C@@H]2[C@@H](O)C[C@@]2(C)[C@H]1CC[C@]2(O)C(=O)CO` [cortisol], the “Induction of CAT activity of the hybrid receptor by natural and synthetic non-retinoid ligands” value in assay [1] is recorded as “failed to induce CAT activity”. With `C[C@]12CCC(=O)C[C@@H]1CC[C@@H]1[C@@H]2CC[C@]2(C)[C@@H](O)CC[C@@H]12` [dihydrotestosterone], the “Induction of CAT activity of the hybrid receptor by natural and synthetic non-retinoid ligands” value in assay [1] is recorded as “failed to induce CAT activity”. Take `CC1=C(/C=C/C(C)=C/C=C/C(C)=C/C(=O)O)C(C)(C)CCC1` [retinoic acid]: the “Induction of CAT activity … (in words)” value in assay [1] was “dramatic increase in CAT activity”. For the same compound, the “Induction of hGR (CAT activity)” value in assay [6] is reported as “not induced”. In addition, the “Effect upon CAT activity using wild type gene product hRARα” value in assay [7] is “No effect upon CAT activity”. Besides, the “Effect upon CAT activity using parent vector pRShRRNX” value in assay [8] is on record as “No effect upon CAT activity”. Also, the “Competition of 3H-retinoic acid binding” value in assay [2] is given as “fully competed”. As to `CCCCCCCCCCCCCCCC(=O)OC/C=C(C)/C=C/C=C(C)/C=C/C1=C(C)CCCC1(C)C` [retinyl palmitate], the “Induction of CAT activity … (in words)” value in assay [1] is listed as “even weaker inducers”.
